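How tested: cells in 96-well plates exposed to compound for 48 hours at five concentrations. GI50 is the concentration that inhibits growth by half. At the TGI there is no net growth.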
Columns and labels:
Experiment in all cases: inhibition of tumour cell growth, NCI panel, 48 h
M14 melanoma = test system: M14 melanoma
HOP-62 NSCLC = test system: HOP-62 NSCLC
MALME-3M melanoma = test system: MALME-3M melanoma
UACC-62 melanoma = test system: UACC-62 melanoma
RPMI-8226 leukemia = test system: RPMI-8226 leukemia
ACHN renal = test system: ACHN renal
EKVX NSCLC = test system: EKVX NSCLC
SF-295 CNS = test system: SF-295 CNS
UACC-257 melanoma = test system: UACC-257 melanoma
SNB-75 CNS = test system: SNB-75 CNS

Row | SMILES | TGI (M14 melanoma) [µM] | TGI (HOP-62 NSCLC) [µM] | TGI (MALME-3M melanoma) [µM] | TGI (UACC-62 melanoma) [µM] | TGI (RPMI-8226 leukemia) [µM] | TGI (ACHN renal) [µM] | TGI (EKVX NSCLC) [µM] | TGI (SF-295 CNS) [µM] | TGI (UACC-257 melanoma) [µM] | TGI (SNB-75 CNS) [µM] | GI50 (M14 melanoma) [µM] | GI50 (HOP-62 NSCLC) [µM] | GI50 (MALME-3M melanoma) [µM] | GI50 (UACC-62 melanoma) [µM] | GI50 (RPMI-8226 leukemia) [µM] | GI50 (ACHN renal) [µM] | GI50 (EKVX NSCLC) [µM] | GI50 (SF-295 CNS) [µM] | GI50 (UACC-257 melanoma) [µM] | GI50 (SNB-75 CNS) [µM]
1 | Nc1n[nH]c(=O)c2c1c(Br)cn2C1OC(CO)C(O)C1O (configuration not stated) | 30.1 | 98.2 | 54.7 | 37.5 | 22.5 | > 100 | 39.5 | > 90.2 | > 77.9 | 11.2 |  |  |  |  |  |  |  |  |  | 
2 | Oc1c(Br)cc(Br)c2cccnc12 | 5.11 | 30.8 | 19 | 7.37 | 24.8 | 18.6 | 19.1 | 6.53 | 6 | > 100 | 2.14 | 3.57 | 3.21 | 2.16 | 3.45 | 3.48 | 3.45 | 2.26 | 2.22 | 10.7
3 | Cc1ccc(S(=O)(=O)NC2(C=O)CCC(C(C)(C)C)CC2)cc1 (configuration not stated) | > 100 | > 100 | > 100 | > 100 | 46.3 | > 100 | > 100 | 94.9 | > 100 | > 100 |  |  |  |  |  |  |  |  |  | 
4 | Cn1c(N)c(N=Nc2ccc(S(N)(=O)=O)cc2)c(=O)n(C)c1=O | > 100 | > 100 | > 100 | > 100 | > 100 | > 100 | > 100 | > 100 | > 100 | 56.2 |  |  |  |  |  |  |  |  |  | 
5 | C=C1C(=O)O[C@H]2[C@H]1CC/C(Cn1cc(CNC(=O)c3cc4ccccc4[nH]3)nn1)=C\CC[C@@]1(C)O[C@@H]21 | 6.27 | 31.3 | 3.55 | 3.33 | 9.34 | 17.2 | 30.2 | 39 | 16 | 22.4 | 2.09 | 13.3 | 1.75 | 1.57 | 3.37 | 4.73 | 13.2 | 18.9 | 4 | 10.4
6 | COc1cc(C2C3=C(COC3=O)N(CCO)c3cc4c(cc32)CCC4)cc(OC)c1OC (configuration not stated) | 0.199 | > 32.5 | > 32.5 | > 32.5 | > 12.2 | > 32.5 | > 32.5 |  | > 32.5 | > 32.5 | 0.0672 | 0.121 | 0.598 | 0.0749 | 0.135 | 0.229 | 1.12 | 0.0479 |  | 0.123
7 | COc1cc2c(cc1Nc1nc(Nc3ccsc3C(N)=O)c3cc[nH]c3n1)N(C(=O)CN(C)C)CCC2 | 3.28 | 6.84 | 6.24 | 4.2 | 6.56 | 6.06 | 6.35 | 4.8 | 3.67 | 3.92 | 0.592 | 0.917 | 2.58 | 0.889 | 1.24 | 2.67 | 0.551 | 0.974 | 0.0558 | 1.49
8 | C#Cc1cccc(NC(=O)Nc2cccc(NC(=O)CCl)c2)c1 | > 82.5 | > 82.5 | > 82.5 | > 82.5 | 48.3 | > 82.5 | > 82.5 | > 82.5 | > 82.5 | > 82.5 | 23.6 | 63.6 | 20.7 | 33.1 | 12.5 | 41.5 | > 82.5 | > 82.5 | > 82.5 | 8.67
9 | COc1ccc(C2CC(c3ccc(OC)c(OC)c3)=NN2C(=O)c2cc(OC)c(OC)c(OC)c2)cc1 (configuration not stated) | > 100 | > 100 | > 100 | > 100 | > 100 | > 100 | > 100 |  | > 100 | > 100 | 1.95 | 1.78 | > 91.3 | 1.39 | 4.27 | 2.41 | 5.25 | 0.426 | > 31.5 | 2.08
10 | Cc1ccc(SCN2CCCCC2)cc1 (tested in a mixture with another compound) | 37.3 | 37.7 | 31.3 | 27.7 | 29.5 | 28.7 | 39.2 | 33.1 | 30.6 | 22.5 |  |  |  |  |  |  |  |  |  | 
11 | CN(C)CCCn1c2c(c3ccc([N+](=O)[O-])cc3c1=O)C(=O)c1ccccc1-2 | > 100 | 20.8 | > 100 | 24.6 | 19.3 | 17.8 | > 100 | > 100 | > 100 | 19.3 | 8.54 | 5.67 | 7.86 | 7.13 | 3.46 | 4.54 | 84.9 | 8.63 | 38.1 | 5.24
12 | CCc1cccc(C(C)C)c1C1C(=O)C(=O)N(c2nc3ccccc3s2)C(=O)C1=O | > 100 | > 100 | > 100 | > 100 | > 100 | > 100 | > 100 | > 100 | > 100 | > 100 |  |  |  |  |  |  |  |  |  | 
13 | O=c1c2ccccc2nc(-c2ccccc2Cl)n1NC1OC(CO)C(O)C(O)C1O (configuration not stated) | > 100 | > 100 | > 100 | > 100 | > 100 | > 100 | > 100 | > 100 | > 100 | > 100 |  |  |  |  |  |  |  |  |  | 
14 | Cc1nn(-c2ccccc2)c2ncc3c(c12)C(=O)N(Cc1ccccc1)C3=O | > 100 | 13.8 | > 100 | > 100 | 31.8 | 13.7 | > 100 | 10.7 | > 100 | 6.64 | 4.98 | 3.73 | 5.24 | 21.5 | 3.61 | 3.57 | 5.64 | 3.14 | > 100 | 2.23
15 | CCCCc1ccc(C(N)=O)nc1 | > 100 | > 100 | > 100 | > 100 | > 100 | > 100 | > 100 | > 100 | > 100 | > 100 | > 100 | > 100 | > 100 | > 100 | > 100 | > 100 | 48.9 | > 100 | > 100 | > 100
16 | O=C(CN1C(=O)c2ccccc2C1=O)NC1(C(=O)O)CCCC1 | > 100 | > 100 | > 100 | > 100 | > 100 | > 100 | > 100 | > 100 | > 100 | > 100 |  |  |  |  |  |  |  |  |  | 
17 | CCOC(=O)C(Cc1ccc(N(CCCl)CCCl)cc1)NC(=O)C(CC(C)C)NC(C)=O (configuration not stated) | 2.19 | 3.8 | 2.74 | 2.19 | 6.7 | 1.42 | 19.7 | 16.6 | 5.66 | 8.4 | 0.568 | 1.32 | 0.873 | 0.659 | 1.96 | 0.173 | 5.95 | 2.12 | 1.69 | 1.94
18 | CC1SC(c2cccc(Oc3ccccc3)c2)N(CCc2cccs2)C1=O (configuration not stated) | 2.34 | 3.42 | 3.58 | 2.22 | 2.94 | 4.97 | 1.92 | 2.23 | 3.3 | 3.71 | 1.02 | 1.6 | 1.73 | 0.676 | 0.542 | 1.14 | 0.368 | 0.725 | 1.25 | 1.3
